Measured values from patent publication US9757330B2, “Recipe for in-situ gel, and implant, drug delivery system formed thereby” (INDUSTRIAL TECHNOLOGY RESEARCH INSTITUTE, priority 2013, dated 2017).

Assay: in-vitro release of risperidone from the in-situ hydrogel into PBS
Format: physicochemical
Details: agarose/urea in-situ hydrogel, Millicell insert in 7.5 ml PBS, HPLC, on the 28 day
Method: 800 μl of the stock solution was mixed with 200 μl of DI water containing dispersed risperidone (20 mg/ml). Then, 150 μl of the solution was added into 12-well Millicells and immersed the insert into 7.5 ml of PBS. The PBS solution was taken out at designated time point and replaced with fresh PBS. The concentration of risperidone was measured via HPLC. The release profile of risperidone from the in-situ hydrogel reached 86% on the 28 day (FIG. 2).

## Cc1nc2n(c(=O)c1CCN1CCC(c3noc4cc(F)ccc34)CC1)CCCC2 [risperidone]
  release of risperidone from the in-situ hydrogel: 86%
